Results: publication PMC12632267, “Staphylococcus aureus encodes four differentially regulated pyruvate transporters” (Journal of Bacteriology, 2025)

How the values were obtained:
Assay in all cases: […]-pyruvate uptake, filter assay, complemented triple mutant
Type in all cases: cell-based
Conditions in all cases: 0.5 mM 14C-pyruvate, TSBG, 37 °C; labelled compound
[1] = target: T1, LldP (Staphylococcus aureus, UniProt A0A0H2XGA6)
T1 construct: gene SAUSA300_2313; full-length 532 aa, untagged; expressed from Pcad::lldP (pBK123) in S. aureus JE2 delta lrgAB/lctP/lldP

[2] = target: T2, LctP (Staphylococcus aureus, UniProt A0A0H2XEN8)
T2 construct: full-length 530 aa, untagged; expressed from Pcad::lctP (pBK123) in S. aureus JE2 delta lrgAB/lctP/lldP

[3] = target: T3, LrgAB (Staphylococcus aureus, UniProt Q2FK07+Q2FK08)
T3 construct: gene lrgA; lrgAB operon, untagged; expressed from Pcad::lrgAB (pBK123) in S. aureus JE2 transporter mutants
T3 sequence (Q2FK07 whole entry): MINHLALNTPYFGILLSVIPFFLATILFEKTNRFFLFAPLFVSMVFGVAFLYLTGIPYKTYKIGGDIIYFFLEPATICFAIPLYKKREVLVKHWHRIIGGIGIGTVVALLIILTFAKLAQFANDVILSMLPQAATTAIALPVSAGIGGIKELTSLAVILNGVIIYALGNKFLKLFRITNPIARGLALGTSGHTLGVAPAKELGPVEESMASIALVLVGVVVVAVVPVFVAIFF
T3 sequence (Q2FK08 whole entry): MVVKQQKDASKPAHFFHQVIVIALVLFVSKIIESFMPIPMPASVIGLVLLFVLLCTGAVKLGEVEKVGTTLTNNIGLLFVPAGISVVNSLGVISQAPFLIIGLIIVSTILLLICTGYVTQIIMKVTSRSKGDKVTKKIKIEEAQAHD

T2 sequence (A0A0H2XEN8 entry or part of it): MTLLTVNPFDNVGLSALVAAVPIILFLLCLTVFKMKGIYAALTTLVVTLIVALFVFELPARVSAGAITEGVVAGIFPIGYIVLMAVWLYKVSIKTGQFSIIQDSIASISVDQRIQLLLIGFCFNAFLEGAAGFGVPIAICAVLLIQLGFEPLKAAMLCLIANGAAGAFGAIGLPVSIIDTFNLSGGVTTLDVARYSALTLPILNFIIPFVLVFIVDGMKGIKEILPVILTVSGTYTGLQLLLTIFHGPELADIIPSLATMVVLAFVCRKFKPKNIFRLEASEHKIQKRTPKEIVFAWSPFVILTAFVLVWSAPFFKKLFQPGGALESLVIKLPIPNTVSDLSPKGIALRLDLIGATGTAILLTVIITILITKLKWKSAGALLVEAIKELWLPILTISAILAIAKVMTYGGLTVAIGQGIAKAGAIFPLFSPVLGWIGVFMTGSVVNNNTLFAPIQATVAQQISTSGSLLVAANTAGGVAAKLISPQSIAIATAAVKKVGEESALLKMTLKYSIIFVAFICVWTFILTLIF
T1 sequence (A0A0H2XGA6 entry or part of it): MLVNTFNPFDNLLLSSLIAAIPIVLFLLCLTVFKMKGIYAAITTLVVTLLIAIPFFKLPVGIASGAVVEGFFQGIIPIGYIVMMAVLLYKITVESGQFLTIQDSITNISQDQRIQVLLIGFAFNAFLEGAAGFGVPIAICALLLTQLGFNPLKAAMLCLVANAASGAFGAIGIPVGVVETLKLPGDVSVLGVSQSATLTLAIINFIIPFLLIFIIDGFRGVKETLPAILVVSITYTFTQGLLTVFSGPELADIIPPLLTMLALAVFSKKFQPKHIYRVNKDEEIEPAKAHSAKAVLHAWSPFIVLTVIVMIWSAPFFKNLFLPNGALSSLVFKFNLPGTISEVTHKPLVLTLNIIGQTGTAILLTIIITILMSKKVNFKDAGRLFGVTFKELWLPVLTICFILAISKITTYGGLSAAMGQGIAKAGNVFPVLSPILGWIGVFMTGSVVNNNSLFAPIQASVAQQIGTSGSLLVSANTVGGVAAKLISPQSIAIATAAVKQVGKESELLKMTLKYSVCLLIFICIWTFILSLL

CC(=O)C(=O)O [pyruvate]
14C-pyruvate uptake, filter assay, complemented triple mutant [1]: lctP playing the most significant role under these conditions, followed by lldP, and then lrgAB
14C-pyruvate uptake, filter assay, complemented triple mutant [2]: all three of the putative pyruvate transporters contribute to pyruvate import, with lctP playing
14C-pyruvate uptake, filter assay, complemented triple mutant [3]: lctP playing the most significant role under these conditions, followed by lldP, and then lrgAB
